6 compounds from patent US8153791B2, “Substituted pyrimidinyl oxime kinase inhibitors” (Janssen Pharmaceutica N.V., priority 2005, dated 2012) can be followed below.

Usually IC50 stands for the concentration that gives 50% inhibition.

Read-outs that look alike come from different tables or passages of the source.

Data set [1] concerns the target T1, EGFR (Homo sapiens, UniProt P00533).
T1 construct: The intracellular portion of EGFR started at nucleotide 2189 (corresponding to amino acid 667) and ended at the termination codon; made in house; host or cells: Sf9 insect cells (baculovirus)
Briefly: EGFR Kinase Assay.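 Also: recombinant GST-tagged EGFR expressed in Sf9 cells, phosphorylating biotinylated polyGluTyr with γ-33P ATP on Streptavidin Flashplates, 1 h at 30 °C, scintillation counting, inhibition relative to plate maximum and minimum signals.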 Format: biochemical.

The target in data set [2] is T2, HER-2 (Homo sapiens, UniProt P04626).
T2 construct: purchased Proqinase (Freiburg, Germany)
T2 sequence (P04626 679-1255): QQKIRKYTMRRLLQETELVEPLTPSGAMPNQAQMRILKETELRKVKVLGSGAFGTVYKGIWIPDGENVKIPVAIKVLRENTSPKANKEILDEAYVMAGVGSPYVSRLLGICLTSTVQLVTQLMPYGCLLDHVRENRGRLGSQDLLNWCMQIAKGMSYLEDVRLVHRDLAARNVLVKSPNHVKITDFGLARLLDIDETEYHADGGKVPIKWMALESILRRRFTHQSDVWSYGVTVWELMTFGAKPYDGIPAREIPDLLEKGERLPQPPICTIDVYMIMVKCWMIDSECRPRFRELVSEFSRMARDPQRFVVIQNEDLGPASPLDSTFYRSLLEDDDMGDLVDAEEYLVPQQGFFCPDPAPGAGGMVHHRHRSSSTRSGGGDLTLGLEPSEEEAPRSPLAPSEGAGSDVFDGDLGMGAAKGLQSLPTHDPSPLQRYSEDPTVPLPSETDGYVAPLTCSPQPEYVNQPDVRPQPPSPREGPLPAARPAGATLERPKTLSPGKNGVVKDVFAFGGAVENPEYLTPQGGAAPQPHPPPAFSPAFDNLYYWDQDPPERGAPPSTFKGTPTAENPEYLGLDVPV
Briefly: HER-2 Kinase Assay.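 Also: HER2 kinase reaction read by scintillation counting, inhibition scaled between maximum and minimum signals set on each plate, IC50 from inhibition against log concentration.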 Format: biochemical. Conditions: read-out: HER2 IC50.

Data set [3] deals with HeLa cervical adenocarcinoma. Briefly: In vitro cell proliferation inhibition, HeLa. Format: cell-based. As to conditions: Homo sapiens; HeLa cell line; ATP-Lite method or C14 thymidine method; read-out: HeLa IC50. An excerpt:
(§1) The ability of a test compound to inhibit unregulated in vitro cell proliferation may be determined by measuring incorporation of ^14C-labelled thymidine into newly synthesized DNA within cell lines derived from carcinomas originating from several tissues. Accordingly, the effect of a test compound on proliferation of cells with a variety of phenotypes may be determined.
(§2) Carcinoma cell lines used include the HeLa cervical adenocarcinoma from the American Type Culture Collection (ATCC Cat. #CCL2), SK-OV-3 ovarian carcinoma (ATCC Cat. #HTB-77), MCF-7 breast carcinoma (ATCC Cat. #HTB-22), BT474 breast carcinoma (ATCC Cat. #HTB-20), SKBR3 breast carcinoma (ATCC Cat. #HTB-30), A431 epidermoid carcinoma (ATCC Cat. #CRL-1555) and NCI-N87 gastric carcinoma (ATCC Cat. #CRL-5822).
(§3) The carcinoma cells are trypsinized and counted. The cells (3000-8000 count) are added to each well of a 96-well CytoStar tissue culture treated scintillating microplate (Amersham #RPNQ0160) in complete medium (100 μL) and the plate is then incubated in complete medium for 24 hrs at 37° C. in an inert atmosphere containing 5% CO2.
(§4) Test compound (1 μL) in 100% DMSO is added to the plate test-wells with DMSO only added to control-wells. The plate is incubated in complete medium for a second 24 hr period at 37° C. in an atmosphere containing 5% CO2.
(§5) An aliquot of a solution of Methyl ^14C-thymidine (56 mC/mmol) (NEN #NEC568 or Amersham #CFA532) and complete medium (20 μL to provide 0.2 μCi/well) is then added to each well and the plate is incubated for a third 24 hr period at 37° C. in an atmosphere containing 5% CO2.
(§6) The plate contents are then discarded, the plate is washed twice with PBS (200 μL) and then PBS (200 μL) is added to each well. The plate is sealed and the degree of methyl ^14C-thymidine incorporation is quantified on a Packard Top Count.
(§7) Cell proliferation of the Hela cell line was measured using the ATP-Lite method as described in the ATP Lite Kit (Perkin-Elmer Kit Number 6106941) or the C^14 method as described above. Cell proliferation of the other cell lines was measured using the C^14 method.
(§8) The term “NT” means that the compound indicated was not tested in a particular cell line. The lack of such testing is not intended to imply a belief that the compound is not otherwise active in a particular cell line or any other cell line not tested.

The subject of data set [4] is SK-OV-3 ovarian carcinoma. Put plainly: In vitro cell proliferation inhibition, SK-OV-3. Format: cell-based. Conditions: Homo sapiens; SK-OV-3 cells, 14C-thymidine incorporation.
From the text: as §1, §2, §3, §4, §5, §6, §7, §8
In general terms: Uptake of a labelled nucleoside into DNA is a usual measure of proliferation.

The test system of data set [5] is MCF-7 breast carcinoma. Briefly: In vitro cell proliferation inhibition, MCF-7. Format: cell-based. As to conditions: Homo sapiens, MCF7; MCF-7 cells, 14C-thymidine incorporation.
From the text: as §1, §2, §3, §4, §5, §6, §7, §8

The subject of data set [6] is BT474 breast carcinoma. Briefly: In vitro cell proliferation inhibition, BT474. Conditions: Homo sapiens, BT-474; BT474 cells, 14C-thymidine incorporation; read-out: IC50 BT474. Format: cell-based.
From the text: as §1, §2, §3, §4, §5, §6, §7, §8

Data set [7] deals with SKBR3 breast carcinoma. Put plainly: In vitro cell proliferation inhibition, SKBR3. Format: cell-based. Conditions: Homo sapiens, SK-BR-3; SKBR3 cells, 14C-thymidine incorporation; read-out: IC50 SKBR3.
From the text: as §1, §2, §3, §4, §5, §6, §7, §8

Data set [8] concerns A431 epidermoid carcinoma. Briefly: In vitro cell proliferation inhibition, A431. Format: cell-based. Conditions: Homo sapiens, A-431; A431 cells, 14C-thymidine incorporation; read-out: IC50 A431.
From the text: as §1, §2, §3, §4, §5, §6, §7, §8

Data set [9] relates to NCI-N87 gastric carcinoma. Briefly: In vitro cell proliferation inhibition, NCI-N87. Conditions: Homo sapiens, NCI-N87; N87 cells, 14C-thymidine incorporation; read-out: IC50 N87. Format: cell-based.
From the text: as §1, §2, §3, §4, §5, §6, §7, §8

Data set [10] can be described thus: Blood-Brain Barrier Penetration (concentration in plasma and brain). As to conditions: male, Sprague Dawley, rat; for concentration at 60 min: male Sprague Dawley rats; for concentration at 120 min: 120 min (brain). Format: in vivo, Sprague Dawley rats. The method, then: The blood-brain barrier penetration of Compound 78 was examined in male Sprague Dawley rats following i.v. (3 mg/kg) or oral (10 mg/kg) administration.
The i.v. formulation consisted of a 1 mg/mL dose in vehicle (10% solutol in D5W at pH 3) with plasma samples drawn at 0.25 hours, 0.5 hours and 1 hour after administration.
The oral (p.o) formulation consisted of a 1 mg/mL dose in vehicle (0.5% methylcellulose) with plasma samples drawn at 0.5 hours, 1 hour and 2 hours after administration.
The plasma samples (0.5 ml) were collected and centrifuged (2000 rpm, 3 min), then stored at −60° C. until LC-MS/MS analysis. Brain samples were collected immediately after the last blood sample collection. The samples were rinsed with 0.9% NaCl, patted dry, then weighed and placed in Falcon 14 mL polypropylene round-bottom tubes containing 3 mL methanol. The methanolic mixtures were homogenized with an OMNI TH115 homogenizer then centrifuged for 10 minutes at 7,000 rpm. The supernatant was removed and stored frozen in 15 mL polyethylene tubes at −60° C. until LC-MS/MS analysis.

The subject of data set [11] is N87 gastric carcinoma cells. Put plainly: N87 Human Tumor Xenograft Model. Format: in vivo, nu/nu mice. As to conditions: treatment groups 5-10, 100 mg/kg oral once daily for 30 days. An excerpt: The N87 gastric carcinoma cell line overexpresses HER-2 as a result of gene amplification and forms tumors in nude mice (Kasprzyk P G, Song S U, Di Fiore P P, King C R, Therapy of an animal model of human gastric cancer using a combination of anti-erbB-2 monoclonal antibodies, Cancer Res., 1992, 52, 2771-2776).
Female nu/nu mice (Charles River; 8 to 9 weeks of age) were implanted subcutaneously with from 3×10^6 to 5×10^6 N87 gastric carcinoma cells (obtained from the American Type Culture Collection, ATCC Cat. #CRL-5822) in the flank. Animals were weighed twice weekly during the study and examined frequently.
Tumor size was monitored twice weekly and then daily as the neoplasms reached the target weight range (about 75 mg). Animals were pair-matched when tumors were in the 62 to 126 mg range (group mean tumor size: 70 to 74 mg). Estimated tumor weight was calculated using the formula: […]
A test compound was orally administered daily in the test treatment group after the tumor reached the target weight. For treatment group 1, the test compound was administered once daily for 35 days. For treatment group 2, the test compound was administered once daily for 30 days. For treatment group 3, each dose of test compound was administered once daily for 30 days. For treatment group 4, each dose of test compound was administered once daily for 36 days. For treatment group 5-10, the test compound was administered once daily for 30 days.
Tumor weight was measured daily for subjects (n=8) in the test group and the matched subjects (n=8) in the vehicle-treated group.
The tumor growth inhibition (in percent) was calculated on the last day of the study using the formula: […]
(§9) Statistical significance was evaluated by comparing the vehicle group to the test group using a two tailed Students t test. The term “NC” means that the P value for the treatment group indicated was not calculated. The lack of such calculation is not intended to imply a belief that the activity of the compound is not otherwise statistically significant in this particular cell line or in any other cell line not tested.
In general terms: In xenograft studies the graft and the host belong to different species.

Data set [12] has as its system A431 epidermoid carcinoma cells. Briefly: A431 Human Tumor Xenograft Model. Format: in vivo, nu/nu mice. Conditions: treatment groups 5-10, 100 mg/kg oral once daily for 30 days.
From the text: The A431 epidermoid carcinoma cell line overexpresses EGFR, activating signaling pathways responsible for driving the proliferation, invasion and survival of cancer cells and forming tumors in nude mice (Giard D J, Aaronson S A, Todaro G J, Arnstein P, Kersey J H, Dosik H, Parks W P, In vitro cultivation of human tumors: establishment of cell lines derived from a series of solid tumors, J. Natl. Cancer Inst., 1973, 51, 1417-1423; and, Kawamoto T, Sato J D, Le A, Polikoff J, Sato G H, Mendelsohn J, Growth stimulation of A431 cells by epidermal growth factor: identification of high-affinity receptors for epidermal growth factor by an anti-receptor monoclonal antibody, Proc. Natl. Acad. Sci. USA, 1983, 80, 1337-1341).
Female nu/nu mice (Charles River; 8 to 9 weeks of age) were implanted subcutaneously in the flank with 4×10^6 A431 epidermoid carcinoma cells (obtained from the American Type Culture Collection, ATCC Cat. #CRL-1555). Animals were weighed twice weekly during the study and examined frequently.
Tumor size was monitored twice weekly and then daily as the neoplasms reached the target weight range (about 75 mg). Animals were pair-matched when tumors were in the 62 to 126 mg range (group mean tumor size: 70 to 74 mg). Estimated tumor weight was calculated using the formula of Example 4.
A test compound was orally administered daily in the test treatment group after the tumor reached the target weight. For treatment groups 1 and 2, each dose of test compound was administered once daily for 25 days. For treatment group 3, each dose of test compound was administered twice daily for 25 days. For treatment group 4, the test compound was administered twice daily for 30 days. For treatment group 5-10, the test compound was administered once daily for 30 days.
as §9

T1 sequence (P00533 669-1210 limits assumed): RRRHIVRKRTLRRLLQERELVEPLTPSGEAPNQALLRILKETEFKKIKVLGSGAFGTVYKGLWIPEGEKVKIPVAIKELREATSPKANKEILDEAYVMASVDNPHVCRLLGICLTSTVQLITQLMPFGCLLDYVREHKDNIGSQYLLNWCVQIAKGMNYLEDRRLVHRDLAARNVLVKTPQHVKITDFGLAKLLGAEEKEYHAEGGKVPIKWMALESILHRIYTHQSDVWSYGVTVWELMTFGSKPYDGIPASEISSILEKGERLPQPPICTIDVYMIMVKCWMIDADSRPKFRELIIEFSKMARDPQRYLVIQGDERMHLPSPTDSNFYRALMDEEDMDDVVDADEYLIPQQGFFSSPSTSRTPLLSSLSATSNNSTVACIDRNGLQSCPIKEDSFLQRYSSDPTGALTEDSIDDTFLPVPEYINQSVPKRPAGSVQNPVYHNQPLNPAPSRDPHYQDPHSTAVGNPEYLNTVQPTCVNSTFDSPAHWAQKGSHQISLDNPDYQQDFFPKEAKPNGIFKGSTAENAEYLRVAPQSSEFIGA

Consider `Nc1ncnc(Nc2ccc(OCc3ccccc3)c(Cl)c2)c1/C=N/OCCN1CCOCC1` [Cpd 78], for which the IC50 stood at 20 nM in data set [1]; 60 nM in data set [2]; 19600 nM in data set [3]; 100000 nM in data set [4]; 100000 nM in data set [5]; 60 nM in data set [6]. For the same compound, the figures for the IC50 in data set [7], in [8] and in data set [9] were 200 nM, 800 nM and 200 nM, respectively. Further, the concentration at 60 min was determined as 307 ± 55 ng/g in [10] (brain, iv, 3 mg/kg, i.v. 3 mg/kg, 60 min (brain), read-out: Concentration in Brain, Mean ± SEM); 124 ± 5.5 ng/mL in data set [10] (plasma, iv, 3 mg/kg, i.v. 3 mg/kg, 60 min (plasma), read-out: Concentration in Plasma, Mean ± SEM); 73.6 ± 16.4 ng/mL in data set [10] (plasma, po, 10 mg/kg, p.o. 10 mg/kg, 60 min (plasma), read-out: Concentration in Plasma, Mean ± SEM). Further, the concentration at 120 min was 46.1 ± 17.4 ng/g in data set [10] (brain, po, 10 mg/kg, p.o. 10 mg/kg, first of two lines so labelled, read-out: Concentration in Brain, Mean ± SEM) and 51.2 ± 13.7 ng/g in data set [10] (brain, po, 10 mg/kg, p.o. 10 mg/kg, second of two lines so labelled, read-out: Concentration in Brain, Mean ± SEM). The Kp at 1 h in [10] (brain/plasma, iv, i.v. 3 mg/kg, 60 min, read-out: Brain/Plasma Ratio) amounted to 2.5. Moreover, in data set [10] (brain/plasma, po, p.o. 10 mg/kg, read-out: Brain/Plasma Ratio), the Kp at 2 h was determined as 1.2.

Regarding `Nc1ncnc(Nc2ccc(OCc3ccccc3)c(Cl)c2)c1/C=N/OCCN1CCCCC1` [Cpd 95, (5E)-4-amino-6-(4-benzyloxy-3-chloro-phenylamino)-pyrimidine-5-carbaldehyde O-(2-piperidin-1-yl-ethyl)-oxime], the IC50 in data set [1] worked out at 50 nM; in [2], 200 nM; in data set [3], 12100 nM; in [4], 2400 nM; in data set [5], 1000 nM; in [6], 10000 nM. In addition, the IC50 in data set [7] amounted to 10000 nM; in data set [8], 100000 nM; in data set [9] it was 1100 nM.

For the compound `Nc1ncnc(Nc2ccc3c(cnn3Cc3cccc(F)c3)c2)c1/C=N/OCCN1CCCCC1` [Cpd 96, (5E)-4-amino-6-[1-(3-fluoro-benzyl)-1H-indazol-5-ylamino]-pyrimidine-5-carbaldehyde O-(2-piperidin-1-yl-ethyl)-oxime], the IC50 came out at 60 nM in [1]; 100 nM in data set [2]; 14700 nM in data set [3]; 15300 nM in [4]; 2100 nM in data set [5]; 200 nM in data set [6]. Besides, the IC50 in data set [7] came to 400 nM; in data set [8], 800 nM; in data set [9] it was 200 nM.

In turn, `Nc1ncnc(Nc2ccc(OCc3ccccc3)c(Cl)c2)c1/C=N/OCCCN1CCOCC1` [Cpd 112, (5E)-4-amino-6-(4-benzyloxy-3-chloro-phenylamino)-pyrimidine-5-carbaldehyde O-(3-morpholin-4-yl-propyl)-oxime] returned an IC50 in data set [1] of 20 nM. The “N87 Tumor Growth Inhibition TGI” value in [11] was 48.6%. In data set [12], the “A431 Tumor Growth Inhibition TGI” value was determined as 33%.

In the case of `Nc1ncnc(Nc2ccc(OCc3ccccc3)c(Cl)c2)c1/C=N/OCc1ccccn1` [Cpd 114, (5E)-4-amino-6-(4-benzyloxy-3-chloro-phenylamino)-pyrimidine-5-carbaldehyde O-pyridin-2-ylmethyl-oxime], in data set [11], the “N87 Tumor Growth Inhibition TGI” value is 47%. In data set [12], the “A431 Tumor Growth Inhibition TGI” value was −3%.

Regarding `COCCNCCCO/N=C/c1c(N)ncnc1Nc1ccc(OCc2ccccc2)c(Cl)c1` [Cpd 115, (5E)-4-amino-6-(4-benzyloxy-3-chloro-phenylamino)-pyrimidine-5-carbaldehyde O-[3-(2-methoxy-ethylamino)-propyl]-oxime], in data set [11], the “N87 Tumor Growth Inhibition TGI” value amounted to 50.2%. Moreover, the “A431 Tumor Growth Inhibition TGI” value in [12] is on record as 4%.
